Results reported in patent US7897602B2, “Indolinone compounds as kinase inhibitors” (Development Center for Biotechnology, priority 2009, dated 2011).
Where a name gives a salt, the structure may show the parent alone.

Experiments:
Type in all cases: biochemical
[1] = target: T1, c-Met kinase (Homo sapiens, UniProt P08581); assay: c-Met kinase assay (33P incorporation into Poly(Glu-Tyr)); conditions: 500 nM test compound
T1 construct: recombinant N-terminal 6×His-tagged c-Met kinase domain construct expressed from baculovirus; 6xHis (N); made in house
T1 sequence (P08581 1078-1345 limits assumed): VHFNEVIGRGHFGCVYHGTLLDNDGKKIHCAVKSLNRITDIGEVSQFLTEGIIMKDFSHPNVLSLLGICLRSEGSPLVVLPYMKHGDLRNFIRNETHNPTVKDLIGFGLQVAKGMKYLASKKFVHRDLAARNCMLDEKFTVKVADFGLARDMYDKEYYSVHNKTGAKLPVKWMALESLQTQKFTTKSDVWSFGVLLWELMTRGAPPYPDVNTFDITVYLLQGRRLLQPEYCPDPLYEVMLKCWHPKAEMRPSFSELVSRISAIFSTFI
How it was run: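 Recombinant N-terminal 6×His-tagged c-Met kinase domain (baculovirus-expressed, 5 ng) acted on Poly(Glu-Tyr) 4:1 with 100 μM ATP plus [33P]-γ-ATP in MOPS pH 7.0 buffer, 30 min at 30° C. Compound was at 500 nM. Filter-retained radioactivity was compared with the DMSO control to give percent inhibition.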

[2] = target: T2, PDGFR-β kinase (Homo sapiens, UniProt P09619); assay: PDGFR-β kinase assay (33P incorporation into Poly(Glu-Tyr)); conditions: 500 nM test compound
T2 construct: recombinant N-terminal 6×His-tagged PDGFR-β kinase domain construct expressed by baculovirus; 6xHis (N); made in house
T2 sequence (P09619 600-962 limits assumed): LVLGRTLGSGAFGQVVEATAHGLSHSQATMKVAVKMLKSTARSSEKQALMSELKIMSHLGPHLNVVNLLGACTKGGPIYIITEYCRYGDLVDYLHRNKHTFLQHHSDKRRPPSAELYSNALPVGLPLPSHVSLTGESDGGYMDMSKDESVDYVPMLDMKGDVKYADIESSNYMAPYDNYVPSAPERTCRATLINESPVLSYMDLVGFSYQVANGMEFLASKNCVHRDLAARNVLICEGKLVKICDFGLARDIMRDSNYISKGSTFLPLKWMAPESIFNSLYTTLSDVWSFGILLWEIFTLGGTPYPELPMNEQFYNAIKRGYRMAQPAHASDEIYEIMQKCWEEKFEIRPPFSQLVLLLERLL
How it was run: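 His-tagged PDGFR-β kinase domain (55 ng) with Poly(Glu-Tyr) 4:1, 30 μM ATP plus [33P]-γ-ATP, pH 7.0 MnCl2 buffer, and 500 nM compound for 30 min at 30° C. Filter-bound radioactivity counted; inhibition computed relative to DMSO control.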

[3] = target: T3, Aurora B kinase (Homo sapiens, UniProt Q96GD4); assay: Aurora B kinase assay ([γ-33P]ATP, CHOCKtide substrate); conditions: for inhibition at 1 µM: 1.0 μM test compound
T3 construct: purchased Cell signaling
T3 sequence (Q96GD4 whole entry): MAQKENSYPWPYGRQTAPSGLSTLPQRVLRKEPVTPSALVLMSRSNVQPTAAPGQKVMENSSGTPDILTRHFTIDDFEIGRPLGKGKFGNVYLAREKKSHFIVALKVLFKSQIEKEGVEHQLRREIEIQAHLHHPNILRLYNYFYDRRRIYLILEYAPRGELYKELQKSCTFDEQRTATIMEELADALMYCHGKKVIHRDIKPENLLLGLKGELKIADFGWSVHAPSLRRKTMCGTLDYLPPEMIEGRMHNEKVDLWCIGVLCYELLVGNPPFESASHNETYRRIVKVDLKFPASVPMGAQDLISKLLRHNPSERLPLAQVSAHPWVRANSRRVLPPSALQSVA
How it was run: (§1)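 Recombinant Aurora A (1 ng) or Aurora B (2.5 ng) incubated with test compound, CHOCKtide (1 μg) and [γ-33P]ATP/ATP at 10 μM (Aurora A) or 40 μM (Aurora B), 30 min at 33 °C. Stopped with phosphoric acid; filter-bound 33P counted; IC50 = half-maximal inhibition.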

[4] = target: T4, Aurora A kinase (Homo sapiens, UniProt O14965); assay: Aurora A kinase assay ([γ-33P]ATP, CHOCKtide substrate); conditions: for inhibition at 1 µM: 1.0 μM test compound
T4 construct: purchased Upstate
T4 sequence (O14965 1-403): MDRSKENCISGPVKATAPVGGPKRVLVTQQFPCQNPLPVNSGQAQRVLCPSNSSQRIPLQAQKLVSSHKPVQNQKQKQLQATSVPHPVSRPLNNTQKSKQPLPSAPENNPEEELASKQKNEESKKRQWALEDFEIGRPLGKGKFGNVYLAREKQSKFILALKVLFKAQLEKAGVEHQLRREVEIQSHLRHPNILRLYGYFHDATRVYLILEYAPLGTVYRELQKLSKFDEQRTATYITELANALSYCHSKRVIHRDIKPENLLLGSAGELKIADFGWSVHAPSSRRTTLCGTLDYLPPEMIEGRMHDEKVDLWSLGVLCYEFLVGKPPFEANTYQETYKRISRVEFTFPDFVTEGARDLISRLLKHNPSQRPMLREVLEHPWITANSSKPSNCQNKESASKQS
How it was run: as §1

| Compound | inhibition at 0.5 µM [1] [%] | inhibition at 0.5 µM [2] [%] | inhibition at 1 µM [3] [%] | inhibition at 1 µM [4] [%] | IC50 [3] [nM] | IC50 [4] [nM] |
| --- | --- | --- | --- | --- | --- | --- |
| O=C(O)CCc1c(/C=C2\C(=O)Nc3cc(-c4ccc(F)cc4)ccc32)[nH]c2c1C(=O)CCC2 [DCB-70099, (Z)-6-(4-fluorophenyl)-3-((3-carboxyethyl-4-oxo-4,5,6,7-tetrahydro-1H-indol-2-yl)methylene)indolin-2-one] | 22.7 | 74.6 | 30 | 47.5 | – | – |
| CCOC(=O)CCc1c(/C=C2\C(=O)Nc3ccc(Br)cc32)[nH]c2c1C(=O)CCC2 [DCB-70056, (Z)-5-bromo-3-((3-(3-ethoxy-3-oxopropyl)-4-oxo-4,5,6,7-tetrahydro-1H-indol-2-yl)methylene)indolin-2-one] | 30.9 | 84.1 | 7.2 | 55 | – | – |
| O=C(O)CCc1c(/C=C2\C(=O)Nc3ccc(S(=O)(=O)N4CCOCC4)cc32)[nH]c2c1C(=O)CCC2 [DCB-70088, (Z)-5-morpholinosulfonyl-3-((3-carboxyethyl-4-oxo-4,5,6,7-tetrahydro-1H-indol-2-yl)methylene)indolin-2-one] | 25.3 | 1 | 48.8 | 99.3 | 1870 | 28.8 |
| CCOC(=O)CCc1c(/C=C2\C(=O)Nc3cc(-c4ccc(O)c(O)c4)ccc32)[nH]c2c1C(=O)CCC2 [DCB-70077, (Z)-6-(3,4-dihydroxyphenyl)-3-((3-(3-ethoxy-3-oxopropyl)-4-oxo-4,5,6,7-tetrahydro-1H-indol-2-yl)methylene)indolin-2-one] | 4.1 | 66.3 | 47.5 | 57 | – | – |
| CCOC(=O)CCc1c(/C=C2\C(=O)Nc3ccc(NS(=O)(=O)c4ccc(F)cc4)cc32)[nH]c2c1C(=O)CCC2 [DCB-70144, (Z)-ethyl 3-(2-((5-(4-fluorophenylsulfonamido)-2-oxoindolin-3-ylidene)methyl)-4-oxo-4,5,6,7-tetrahydro-1H-indol-3-yl)propanoate] | 14.4 | 2.4 | 61.9 | 82 | 448 | 270 |
| CCN(CC)C(=O)CCc1c(/C=C2\C(=O)Nc3ccc(F)cc32)[nH]c2c1C(=O)CCC2 [DCB-70124, (Z)-N,N-diethyl-3-(2-((5-fluoro-2-oxoindolin-3-ylidene)methyl)-4-oxo-4,5,6,7-tetrahydro-1H-indol-3-yl)propanamide] | -0.8 | 64.3 | 1.4 | 11.9 | – | – |
| CCOC(=O)CCc1c(/C=C2\C(=O)Nc3ccc(-c4ccc(OC)c(OC)c4)cc32)[nH]c2c1C(=O)CCC2 [DCB-70067, (Z)-5-(3,4-dimethoxyphenyl)-3-((3-(3-ethoxy-3-oxopropyl)-4-oxo-4,5,6,7-tetrahydro-1H-indol-2-yl)methylene)indolin-2-one] | 17 | 22 | -1.3 | 5.2 | – | – |
| O=C(O)CCc1c(C=C2C(=S)Nc3ccccc32)[nH]c2c1C(=O)CCC2 [DCB-70084, 3-((3-carboxyethyl-4-oxo-4,5,6,7-tetrahydro-1H-indol-2-yl)methylene)indolin-2-thione] | 11.5 | 6 | 17.9 | 10.9 | – | – |
| CN1CCN(S(=O)(=O)c2ccc3c(c2)/C(=C/c2[nH]c4c(c2CCC(=O)O)C(=O)CCC4)C(=O)N3)CC1 [DCB-70107, (Z)-5-(4-methylpiperazin-1-ylsunfonyl)-3-((3-carboxyethyl-4-oxo-4,5,6,7-tetrahydro-1H-indol-2-yl)methylene)indolin-2-one hydrochloride] | 59.6 | 8 | 23.7 | 36 | – | – |
| COc1ccc(-c2ccc3c(c2)/C(=C/c2[nH]c4c(c2CCC(=O)O)C(=O)CCC4)C(=O)N3)cc1OC [DCB-70068, (Z)-5-(3,4-dimethoxyphenyl)-3-((3-carboxyethyl-4-oxo-4,5,6,7-tetrahydro-1H-indol-2-yl)methylene)indolin-2-one] | 18 | 20.6 | 5.1 | 54 | – | 560 |
| CCOC(=O)CCc1c(/C=C2\C(=O)Nc3ccc(-c4ccc(O)c(OC)c4)cc32)[nH]c2c1C(=O)CCC2 [DCB-70058, (Z)-5-(4-hydroxyl-3-methoxyphenyl)-3-((3-(3-ethoxy-3-oxopropyl)-4-oxo-4,5,6,7-tetrahydro-1H-indol-2-yl)methylene)indolin-2-one] | 9.7 | 30.5 | -1 | 17.7 | – | – |
| O=C(O)CCc1c(/C=C2\C(=O)Nc3ccc([N+](=O)[O-])cc32)[nH]c2c1C(=O)CCC2 [DCB-70063, (Z)-5-nitro-3-((3-carboxyethyl-4-oxo-4,5,6,7-tetrahydro-1H-indol-2-yl)methylene)indolin-2-one] | 19.9 | 79.7 | 3.4 | 56.6 | – | 724 |
| O=C(O)CCc1c(/C=C2\C(=O)Nc3ccc(-c4ccc(F)cc4)cc32)[nH]c2c1C(=O)CCC2 [DCB-70109, (Z)-5-(4-fluorophenyl)-3-((3-carboxyethyl-4-oxo-4,5,6,7-tetrahydro-1H-indol-2-yl)methylene)indolin-2-one] | -10.8 | 22.6 | 1.8 | 69.1 | – | – |
| COc1ccc(NC(=O)Nc2ccc3c(c2)/C(=C/c2[nH]c4c(c2CCC(=O)O)C(=O)CCC4)C(=O)N3)cc1 [DCB-70094, (Z)-5-(3-(4-methoxyphenyl)ureido)-3-((3-carboxyethyl-4-oxo-4,5,6,7-tetrahydro-1H-indol-2-yl)methylene)indolin-2-one] | 18.9 | 48.5 | 15.5 | 75.2 | – | – |
| CCOC(=O)CCc1c(/C=C2\C(=O)Nc3cc(-c4cc5ccccc5s4)ccc32)[nH]c2c1C(=O)CCC2 [DCB-70079, (Z)-6-(benzo[b]thiophen-2-yl)-3-((3-(3-ethoxy-3-oxopropyl)-4-oxo-4,5,6,7-tetrahydro-1H-indol-2-yl)methylene)indolin-2-one] | 21.4 | 9.6 | 16 | 8.8 | – | – |
| O=C(O)CCc1c(/C=C2\C(=O)Nc3ccc(NC(=O)c4ccccc4)cc32)[nH]c2c1C(=O)CCC2 [DCB-70097, (Z)-5-benazmido-3-((3-carboxyethyl-4-oxo-4,5,6,7-tetrahydro-1H-indol-2-yl)methylene)indolin-2-one] | 14.4 | 21.5 | 14.2 | 64.7 | – | – |
| CCOC(=O)CCc1c(/C=C2\C(=O)Nc3ccc(NC(=O)Nc4ccc(Br)cc4)cc32)[nH]c2c1C(=O)CCC2 [DCB-70135, (Z)-ethyl 3-(2-((5-(3-(4-bromophenyl)ureido)-2-oxoindolin-3-ylidene)methyl)-4-oxo-4,5,6,7-tetrahydro-1H-indol-3-yl)propanoate] | -3.7 | 12 | -6.6 | 7.4 | – | – |
| CCOC(=O)CCc1c(/C=C2\C(=O)Nc3ccc(NC(=O)Nc4ccc(OC)cc4)cc32)[nH]c2c1C(=O)CCC2 [DCB-70092, (Z)-5-(3-(4-methoxyphenyl)ureido)-3-((3-(3-ethoxy-3-oxopropyl)-4-oxo-4,5,6,7-tetrahydro-1H-indol-2-yl)methylene)indolin-2-one] | 18.6 | 14.1 | 9.9 | 9.4 | – | – |
| CNS(=O)(=O)c1ccc2c(c1)/C(=C/c1[nH]c3c(c1CCC(=O)N1CCN(C)CC1)C(=O)CCC3)C(=O)N2 [DCB-70117] | 41.4 | 8.9 | 5.3 | 34.9 | – | – |
| CCOC(=O)CCc1c(/C=C2\C(=O)Nc3ccc(NC(=O)c4ccc(F)cc4)cc32)[nH]c2c1C(=O)CCC2 [DCB-70074, (Z)-5-(4-fluorobenzamido)-3-((3-(3-ethoxy-3-oxopropyl)-4-oxo-4,5,6,7-tetrahydro-1H-indol-2-yl)methylene)indolin-2-one] | 21.5 | 6.6 | 15.1 | 19.3 | – | – |
